Results: US10556865B2, “Synergistic herbicidal composition containing certain pyridine or pyrimidine carboxylic acids and certain cereal and rice herbicides” (Dow AgroSciences, LLC, priority 2007, dated 2020)
“And” between values parts separate entries of the source, which are not always exact repeats. Identical values can stand only once.

Legend:
Assay type in all cases: in vivo
[1] = tested on: Ipomoea hederacea (L.) JACQ. (IPOHE); test: Postemergence herbicidal mixtures for weed control in direct seeded rice (greenhouse, visual % injury after 3 weeks); conditions: for % Injury Ob: IPOHE
[2] = tested on: Digitaria sanguinalis (L.) SCOP. (DIGSA); test: Postemergence herbicidal mixtures for weed control in direct seeded rice (greenhouse, visual % injury)
[3] = tested on: Scirpus maritimus L. (SCPMA); test: as above; conditions: SCPMA
[4] = tested on: Canada thistle (Cirsium arvense L; CIRAR); test: Postemergence herbicidal activity of mixtures in cereal crops (greenhouse, visual injury)
How it was run: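 Weeds grown in greenhouse (~14 h photoperiod, ~18/17 °C day/night) to second–third true leaf stage, sprayed postemergence with compound and second cereal herbicide alone or combined; solvent-blank controls. Injury scored visually after 20-22 days, 0–100% (complete kill); expected mixture activity = A+B−(A×B/100).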

## COC(=O)c1nc(-c2ccc(Cl)c(OC)c2F)cc(N)c1Cl [Compound A Methyl, 4-amino-3-chloro-6-(4-chloro-2-fluoro-3-methoxyphenyl)pyridine-2-carboxylic acid methyl ester]
[1]; 4.38 g/ha alone
  % Injury Ob: 20%
[1]; 8.75 g/ha alone
  % Injury Ob: 40%
[1]; 17.5 g/ha alone
  % Injury Ob: 75%
[1]; alone 4.38 g/ha
  % Injury IPOHE Ob: 10% and 0%
[1]; alone 17.5 g/ha
  % Injury IPOHE Ob: 85% and 75%
[2]; 8.75 g/ha alone
  % Injury Ob: 20%
[2]; 17.5 g/ha alone
  % Injury Ob: 50%
[3]; 4.38 g/ha alone
  % Injury Ob: 0%
[3]; 8.75 g/ha alone
  % Injury Ob: 10%

## COc1c(Cl)ccc(-c2cc(N)c(Cl)c(C(=O)O)n2)c1F [Compound A TEA, 4-amino-3-chloro-6-(4-chloro-2-fluoro-3-methoxyphenyl)pyridine-2-carboxylic acid]
[4]; 35 g/ha
  CIRAR Ob: 50%
[4]; 70 g/ha
  CIRAR Ob: 60%
[4]; 140 g/ha
  CIRAR Ob: 65%
